One series relates to AT2 cells. Nature of the series: AdGFP infection followed by IF for SP-C or CCA after naphthalene. The format is in vivo, mouse. Conditions: 24 hr after AdGFP; control 7.8%; no significant increase. The source says:
FIG. 7A). An even greater impact on tumor area was associated with naphthalene treatment; adenomas comprised a 6-, 12-, and 15-fold greater proportion of total lung area when initiated after airway damage in the three experiments (p=0.009; FIG. 7B).

Series [1] has as its system BASCs. The experiment in a line: BASC number per terminal bronchiole by dual IF for CCA and SP-C after naphthalene treatment.
Protocol: To determine if airway damage affects BASCs, dual IF for CCA and SP-C is performed at various time points after naphthalene treatment. […] BrdU administered prior to euthanasia is used to determine if BASCs proliferate in response to naphthalene.
Lox-stop-lox K-ras G12D mice (Jackson et al. (2001) Genes Dev. 15, 3243-3248) and wild-type littermates were maintained in viral-free conditions on an F1 129 SvJ/C57BI6 background. Four- to eight-week-old mice were used for FACS or intranasal infections as described (Jackson et al. (2001) Genes Dev. 15, 3243-3248). Naphthalene (Aldrich) was dissolved in MAZOLA corn oil and injected i.p. at 275 mg/kg using sex- and background-matched control mice. […] 30 mg/kg BrdU in PBS was injected i.p. 2 hr before euthanasia for proliferation studies. Tissue preparation was as described (Jackson et al., 2001, supra). BASCs were quantified by scoring sections from at least three mice for each condition.
The test system of series [2] is BASCs. The experiment in a line: BrdU proliferation at the BADJ after naphthalene. The format is in vivo, mouse. Conditions: all SP-Cpos CCApos.
The subject of a further series is Lox-K-ras lung tumors. The experiment in a line: Naphthalene treatment before AdCre in LSL-K-ras G12D mice: tumor number and area. The format is in vivo, mouse. The note with it: 6 weeks, three independent experiments, p=0.04. As for the experimental part:
We reasoned that the cellular requirements for adenocarcinoma formation could be dissected further by combining K-ras G12D activation with naphthalene treatment, which stimulates proliferation of BASCs in vivo (see FIG. 2). LSL-K-ras G12D mice and wild-type controls were treated with naphthalene; tumorigenesis was initiated by administering AdCre 24 hr to 3 days later, and mice were euthanized after 6 weeks to determine tumor incidence and size.
An even greater impact on tumor area was associated with naphthalene treatment; adenomas comprised a 6-, 12-, and 15-fold greater proportion of total lung area when initiated after airway damage in the three experiments (p=0.009; FIG. 7B).

Series [3] relates to BASCs (Sca-1pos CD45neg Pecamneg cells). The experiment in a line: FACS analysis of BASC abundance after naphthalene treatment. The format is in vivo, mouse.
In series [4] the test system is BASCs. Nature of the series: BASC incidence after intranasal bleomycin. In kind it is in vivo, mouse. As for the experimental part:
Bleomycin is administered intranasally, and at various time points after treatment, the incidence of BASCs is determined.

Where “and” joins values, the source holds several entries; their conditions need not be identical. Identical values can stand only once.

With `c1ccc2ccccc2c1` [naphthalene, Naphthalene], the “infected (GFPpos) cells that were SP-Cpos” value in the series with AT2 cells is recorded as 10.5%. In the series with BASCs [1] (1 week after naphthalene 275 mg/kg i.p., controls 16%±5%, p=0.03), the “terminal bronchioles with two or more BASCs” value is reported as 30%±9%. Further, in the series with BASCs [1] (any time point after naphthalene), the “number of BASCs after naphthalene” value is recorded as “did not significantly decrease”. Moreover, in the series on BASCs [1] (by 52 hr after naphthalene), the Clara cell loss result is reported as “significant Clara cell loss”. The “number of BASCs per BADJ” value in the series on BASCs [1] (six to seven weeks after naphthalene) is recorded as “comparable to that in untreated lung”. Further, in the series with BASCs [2], the “time at which BrdUpos cells are first detected in the BADJ” value was 52 h. Also, the “fold more tumors vs controls (corn oil, AdCre)” value in the series with Lox-K-ras lung tumors is 1.3 fold and 2.2 fold and 2.3 fold. Further, in series [3] (1 week after treatment, p=0.04), the “abundance of BASCs, fold increase vs corn oil control” value is given as 1.3 fold. Moreover, the “abundance of BASCs” value in series [3] (24 hr after naphthalene) was “did not change”.

Regarding Bleomycin, the BASC distribution result with BASCs [4] (7 days after bleomycin) and in the series on BASCs [4] (28 days after bleomycin) was “significantly different neither” in each case. The BASC numbers entry with BASCs [4] (14 days after bleomycin, p=0.01) is listed as “Significant increases”.

The record behind these values is US20070025914A1, “Bronchioalveolar stem cells and uses thereof” (priority 2005, published 2007).
